Test results: ChEMBL document CHEMBL1147302, “Isolation and characterization of an antimalarial agent of the neem tree Azadirachta indica” (J Nat Prod, 1989)

Columns and labels:
[1] = test system: Plasmodium falciparum; experiment: Antimalarial activity against Plasmodium falciparum after 96 hrs by [3H]hypoxanthine uptake; assay type: functional, organism-based
[2] = test system: Plasmodium falciparum; experiment: Antimalarial activity against Plasmodium falciparum after 48 hrs by [3H]hypoxanthine uptake; assay type: functional, organism-based

## CC(=O)O[C@@H]1C[C@H]2C(C)(C)C(=O)C=C[C@]2(C)[C@H]2CC[C@@]3(C)[C@H](c4ccoc4)OC(=O)[C@H]4O[C@]43[C@@]21C [GEDUNIN]
[1]
  IC50: 300 nM
[2]
  IC50: 1000 nM
